In ChEMBL document CHEMBL5620423, “Highly-tumor-targeted PAD4 inhibitors with PBA modification inhibit tumors in vivo by specifically inhibiting the PAD4-H3cit-NETs pathway in neutrophils” (Eur J Med Chem, 2023):
Activity calls are given as the source filed them. The rule behind the calls is not given here.

What was measured:
[1] = Hepatotoxicity in BALB/c mouse xenografted with mouse 4T1 cells assessed as serum AST level at 2 to 10 umol/kg, iv for 21 days; format: toxicity, organism-based; conditions: in vivo, 504 h, dose 2-10 µmol/kg, time 21 day
Mus musculus [2] = experiment: Immunomodulatory activity in iv dosed BALB/c mouse xenografted with mouse 4T1 cells assessed as macrophage polarization by measuring increase in proportion of M1 macrophages administered for 21 days by CyTOF analysis; format: functional, organism-based; conditions: time 21.0 day
[3] = Drug uptake in mouse bone marrow neutrophils assessed as drug localization in nucleus at 50 uM measured after 48 hrs by Hoechst33342 staining based confocal laser scanning microscopy; format: ADME, cell-based; conditions: neutrophil
4T1 [4] = experiment: Antitumor activity against mouse 4T1 cells xenografted in BALB/c mouse assessed as reduction in tumor volume at 2 to 10 umol/kg, iv for 21 days; format: functional, organism-based; conditions: dose 2-10 µmol/kg, time 21.0 day
[5] = Toxicity in BALB/c mouse xenografted with mouse 4T1 cells assessed as liver morphological changes at 10 umol/kg, iv for 21 days by Hematoxylin-Eosin staining based analysis; format: organism-based; conditions: in vivo, 504 h, dose 10 µmol/kg, time 21 day
4T1 [6] = experiment: Anti-metastatic activity against mouse 4T1 cells xenografted in BALB/c mouse assessed as reduction in number of lung metastatic tumor nodules at 5 to 10 umol/kg, iv for 21 days; format: functional, organism-based; conditions: dose 5-10 µmol/kg, time 21.0 day
[7] = Nephrotoxicity in BALB/c mouse xenografted with mouse 4T1 cells assessed as serum BUN level at 2 to 10 umol/kg, iv for 21 days; format: toxicity, organism-based; conditions: in vivo, 504 h, dose 2-10 µmol/kg, time 21 day
4T1 [8] = experiment: Anti-metastatic activity against mouse 4T1 cells assessed as reduction in tumor cell lesions in lungs at 2 umol/kg, iv for 21 days by Hematoxylin-Eosin staining; format: functional, organism-based; conditions: dose 2.0 µmol/kg, time 21.0 day
[9] = Drug uptake in human HL7702 cells assessed as green fluorescence intensity at 50 uM measured after 48 hrs by Hoechst33342 staining based confocal laser microscopy; format: ADME, cell-based; conditions: l02, 48 h
[10] = target: Protein-arginine deiminase type-4 (Mus musculus) (UniProt Q9Z183); experiment: Inhibition of PAD4 in mouse bone marrow neutrophils assessed as reduction in citrullinated histone level at 100 uM measured after 48 hrs by Hoechst33342 staining based confocal laser scanning microscopy; format: cell-based; conditions: Neutrophil
4T1 [11] = experiment: Anti-metastatic activity against mouse 4T1 cells assessed as reduction in tumor cell lesions in lungs at 10 umol/kg, iv for 21 days by Hematoxylin-Eosin staining; format: functional, organism-based; conditions: dose 10.0 µmol/kg, time 21.0 day
Lewis lung carcinoma = experiment: Cytotoxicity against mouse Lewis lung carcinoma cells assessed as effect on cell viability at 3.125 to 100 uM measured after 48 hrs by MTT assay; format: functional, cell-based; conditions: dose 3.125-100 µM
[12] = target: Protein-arginine deiminase type-4 (Mus musculus) (UniProt Q9Z183); experiment: Inhibition of PAD4 in mouse bone marrow neutrophils assessed as reduction in H3 cit expression by measuring red filamentous histone structure at 50 uM measured after 48 hrs by Hoechst33342 staining based confocal laser scanning microscopy; format: cell-based; conditions: Neutrophil
4T1 [13] = experiment: Induction of cell morphological changes in mouse 4T1 cells assessed as increase in number of cells with shrank mitochondria measured after 48 hrs by transmission electron microscopy; format: functional, cell-based
[14] = Hepatotoxicity in BALB/c mouse xenografted with mouse 4T1 cells assessed as serum ALT level at 2 to 10 umol/kg, iv for 21 days; format: toxicity, organism-based; conditions: in vivo, 504 h, dose 2-10 µmol/kg, time 21 day
[15] = Toxicity in BALB/c mouse xenografted with mouse 4T1 cells assessed as decrease in body weight at 2 to 10 umol/kg, iv measured after 9 to 15 days; format: organism-based; conditions: in vivo, dose lower 2 µmol/kg, time lower 9 day, dose upper 10 µmol/kg, time upper 15 day
4T1 [16] = experiment: Anti-metastatic activity against mouse 4T1 cells assessed as reduction in neutrophil extranuclear traps formation by measuring decrease in H3cit positivity in tumor at 10 umol/kg, iv for 21 days by immunofluorescence analysis; format: functional, organism-based; conditions: dose 10.0 µmol/kg, time 21.0 day
[17] = Toxicity in BALB/c mouse xenografted with mouse 4T1 cells assessed as kidney morphological changes at 10 umol/kg, iv for 21 days by Hematoxylin-Eosin staining based analysis; format: organism-based; conditions: in vivo, 504 h, dose 10 µmol/kg, time 21 day
[18] = Toxicity in BALB/c mouse xenografted with mouse 4T1 cells assessed as spleen morphological changes at 10 umol/kg, iv for 21 days by Hematoxylin-Eosin staining based analysis; format: organism-based; conditions: in vivo, 504 h, dose 10 µmol/kg, time 21 day
[19] = Drug uptake in mouse 4T1 cells assessed as layer of green fluorescence around the cell membrane at 50 uM measured after 48 hrs by Hoechst33342 staining based confocal laser microscopy; format: ADME; conditions: 4t1, 48 h
Mus musculus [20] = experiment: Immunomodulatory activity in iv dosed BALB/c mouse xenografted with mouse 4T1 cells assessed as increase in normal neutrophils in tumor tissues administered for 21 days by CyTOF analysis; format: functional, organism-based; conditions: time 21.0 day
L02 = experiment: Cytotoxicity against human HL7702 cells assessed as effect on cell viability at 3.125 to 100 uM measured after 48 hrs by MTT assay; format: toxicity, cell-based; conditions: l02, 48 h, dose 3.125-100 µM
Mus musculus [21] = experiment: Immunomodulatory activity in iv dosed BALB/c mouse xenografted with mouse 4T1 cells assessed as decrease in proportion of aged neutrophils (CD194hi|CD62Llo) in tumor tissues administered for 21 days by CyTOF analysis; format: functional, organism-based; conditions: time 21.0 day
4T1 [22] = experiment: Induction of cell morphological changes in mouse 4T1 cells assessed as rounded tumor cells at 50 uM measured after 48 hrs by scanning electron microscopy; format: functional, cell-based
4T1 [23] = experiment: Anti-metastatic activity against mouse 4T1 cells assessed as reduction in neutrophil extranuclear traps formation by measuring decrease in Ly6G-labeled neutrophils in tumor at 10 umol/kg, iv for 21 days by immunofluorescence analysis; format: functional, organism-based; conditions: dose 10.0 µmol/kg, time 21.0 day
4T1 [24] = experiment: Anti-metastatic activity against mouse 4T1 cells assessed as reduction in tumor cell lesions in lungs at 5 umol/kg, iv for 21 days by Hematoxylin-Eosin staining; format: functional, organism-based; conditions: dose 5.0 µmol/kg, time 21.0 day
[25] = Toxicity in BALB/c mouse xenografted with mouse 4T1 cells assessed as heart morphological changes at 10 umol/kg, iv for 21 days by Hematoxylin-Eosin staining based analysis; format: organism-based; conditions: in vivo, 504 h, dose 10 µmol/kg, time 21 day
4T1 [26] = experiment: Anti-metastatic activity against mouse 4T1 cells assessed as reduction in inflammatory cell infiltration in lungs at 5 umol/kg, iv for 21 days by Hematoxylin-Eosin staining; format: functional, organism-based; conditions: dose 5.0 µmol/kg, time 21.0 day
4T1 [27] = experiment: Antitumor activity against mouse 4T1 cells xenografted in BALB/c mouse assessed as reduction in tumor weight at 10 umol/kg, iv for 21 days; format: functional, organism-based; conditions: dose 10.0 µmol/kg, time 21.0 day
4T1 [28] = experiment: Cytotoxicity against mouse 4T1 cells assessed as effect on cell viability at 3.125 to 100 uM measured after 48 hrs by MTT assay; format: functional, cell-based; conditions: dose 3.125-100 µM
Mus musculus [29] = experiment: Immunomodulatory activity in iv dosed BALB/c mouse xenografted with mouse 4T1 cells assessed as macrophage polarization by measuring proportion of M2 macrophages administered for 21 days by CyTOF analysis; format: functional, organism-based; conditions: time 21.0 day
4T1 [30] = experiment: Induction of cell morphological changes in mouse 4T1 cells assessed as reduction in pseudopodia on cell surface at 50 uM measured after 48 hrs by scanning electron microscopy; format: functional, cell-based
Sarcoma-180 [31] = experiment: Antitumor activity against Sarcoma-180 mouse model assessed as tumor weight at 10 umol/kg (reference value: 1.65 +/-0.2 gms); format: functional; conditions: dose 10 µmol/kg
[32] = target: Protein-arginine deiminase type-4 (Mus musculus) (UniProt Q9Z183); experiment: Inhibition of PAD4 in mouse 4T1 cells assessed as reduction in citrullinated histone level at 100 uM measured after 48 hrs by Hoechst33342 staining based confocal laser scanning microscopy; format: cell-based
[33] = Nephrotoxicity in BALB/c mouse xenografted with mouse 4T1 cells assessed as serum creatinine level at 2 to 10 umol/kg, iv for 21 days; format: toxicity, organism-based; conditions: in vivo, 504 h, dose 2-10 µmol/kg, time 21 day
[34] = Drug uptake in mouse 4T1 cells assessed as increase in green fluorescence intensity at 50 uM measured for 24 hrs flow cytometry; format: ADME, cell-based; conditions: 4t1, 24 h
Sarcoma-180 [35] = experiment: Antitumor activity against Sarcoma-180 mouse model assessed as inhibition of tumor growth at 10 umol/kg; format: functional
[36] = Drug uptake in mouse 4T1 cells assessed as drug localization in cytoplasm at 50 uM measured after 48 hrs by Hoechst33342 staining based confocal laser scanning microscopy; format: ADME, cell-based; conditions: 4t1, 48 h
4T1 [37] = experiment: Cytotoxicity against mouse 4T1 cells assessed as reduction in cell viability measured after 48 hrs by MTT assay; conditions: 4T1, 48 h

Sequence of Protein-arginine deiminase type-4 (Mus musculus) (Q9Z183 whole entry): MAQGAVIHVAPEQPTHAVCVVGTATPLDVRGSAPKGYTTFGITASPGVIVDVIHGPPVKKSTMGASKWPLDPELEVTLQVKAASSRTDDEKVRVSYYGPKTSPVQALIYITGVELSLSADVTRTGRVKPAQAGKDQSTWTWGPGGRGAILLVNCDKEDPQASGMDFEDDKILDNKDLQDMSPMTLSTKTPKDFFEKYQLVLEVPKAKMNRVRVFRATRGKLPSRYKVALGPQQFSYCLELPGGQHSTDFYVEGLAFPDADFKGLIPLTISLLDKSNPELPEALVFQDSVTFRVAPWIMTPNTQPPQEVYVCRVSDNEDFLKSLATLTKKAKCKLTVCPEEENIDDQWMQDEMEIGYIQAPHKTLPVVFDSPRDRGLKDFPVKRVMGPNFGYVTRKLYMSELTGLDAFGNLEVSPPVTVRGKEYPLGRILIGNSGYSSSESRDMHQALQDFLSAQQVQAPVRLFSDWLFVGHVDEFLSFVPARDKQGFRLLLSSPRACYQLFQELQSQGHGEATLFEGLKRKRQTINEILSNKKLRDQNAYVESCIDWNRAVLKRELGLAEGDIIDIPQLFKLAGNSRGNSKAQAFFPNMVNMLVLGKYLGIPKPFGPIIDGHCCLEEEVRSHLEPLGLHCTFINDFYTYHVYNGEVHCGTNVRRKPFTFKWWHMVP

Structure (SMILES): N=C(CCl)NCCC[C@H](NC(=O)c1cc([N+](=O)[O-])c2nonc2c1)C(=O)NCc1cccc(B(O)O)c1
- Activity [1]: Non-Toxic
- Activity (Mus musculus [2]): Active
- Drug uptake [3]: Active
- Activity (4T1 [4]): Active
- Activity [5]: Non-Toxic
- Activity (4T1 [6]): Active
- Activity [7]: Non-Toxic
- Activity (4T1 [8]): inactive
- Drug uptake [9]: Not Active
- inhibition [10]: Active
- Activity (4T1 [11]): Active
- Activity (Lewis lung carcinoma): inactive
- inhibition [12]: Active
- Activity (4T1 [13]): Active
- Activity [14]: Non-Toxic
- Activity [15]: Non-Toxic
- Activity (4T1 [16]): Active
- Activity [17]: Non-Toxic
- Activity [18]: Non-Toxic
- Drug uptake [19]: Active
- Activity (Mus musculus [20]): Active
- Activity (L02): Non-Toxic
- Activity (Mus musculus [21]): Active
- Activity (4T1 [22]): Active
- Activity (4T1 [23]): Active
- Activity (4T1 [24]): Active
- Activity [25]: Non-Toxic
- Activity (4T1 [26]): inactive
- Activity (4T1 [27]): Active
- Activity (4T1 [28]): inactive
- Activity (Mus musculus [29]): inactive
- Activity (4T1 [30]): Active
- Activity (Sarcoma-180 [31]): 0.84 g
- inhibition [32]: Active
- Activity [33]: Non-Toxic
- Drug uptake [34]: Active
- inhibition in vivo at 10 µmol/kg (Sarcoma-180 [35]): 49.2%
- Drug uptake [36]: Active
- IC50 (4T1 [37]): > 100 µM
